Assays:
[1] = target: T1, β 5i (chymotrypsin-like activity) (Homo sapiens, UniProt P20618+P28062); experiment: Cell-Based Proteasome Activity/Selectivity Assay (Ramos cells), substrate (ANW)2Rh110; conditions: β 5i substrate (ANW)2Rh110, highest concentration tested 20 μM, read-out: Ic50: ramos:ac-(anw)2-r110
T1 construct: protease activity associated with the proteasome complex in cultured cells; endogenous in cells; host or cells: Ramos cells
Text: (§1) Cell-Based Proteasome Activity/Selectivity Assay
(§2) The Cell-Based Proteasome subunit activity/selectivity assay was a panel of 5 fluorogenic assays that independently measured the activity of β5c or β 5i (chymotrypsin-like activity), β 2c/2i (trypsin-like), and β 1c or β 1i (caspase-like) protease activity associated with the proteasome complex in cultured cells. Specifically, the following substrates were used for respective subunit activities: β 1i: (PAL)2Rh110, β 1c: (LLE)2Rh110, β 2c/2i: (KQL)2Rh110, β 5c: (WLA)2Rh110, β 5i: (ANW)2Rh110. The following procedure was followed:
(§3) Cell preparation: Plated 25 μl of Ramos cells (2×10^6/ml in DPBS) into half area plate (PerkinElmer Cat 6005569) to final 5×10^4 cells/well. Added 0.5 μl of 100× 4-fold serial diluted test compounds or DMSO to each well. Highest concentration of compound tested was 20 μM, thus compound serial dilution started from […]. Incubated for 30 minutes at 37° C. Then equilibrated at room temperature for 15 minutes. Added 25 μl of 2× reaction mix consisting of 0.025% digitonin, 20 μM of each substrates and 0.5M sucrose in DPBS. Shaked for one minute @ 700 rpm. Incubated for 120 min at room temperature. Then read the plates with an Envision multilabel plate reader (PerkinElmer) with 500 nm excitation/519 nm emission.

[2] = target: T2, β5c (chymotrypsin-like activity) (Homo sapiens, UniProt P20618+P28074); experiment: Cell-Based Proteasome Activity/Selectivity Assay (Ramos cells), substrate (WLA)2Rh110; conditions: β 5c substrate (WLA)2Rh110, highest concentration tested 20 μM
T2 construct: protease activity associated with the proteasome complex in cultured cells; endogenous in cells; host or cells: Ramos cells
Text: as §1, §2, §3

[3] = target: T3, β 1i (caspase-like) (Homo sapiens, UniProt P28065+P40306); experiment: Cell-Based Proteasome Activity/Selectivity Assay (Ramos cells), substrate (PAL)2Rh110; conditions: β 1i substrate (PAL)2Rh110, highest concentration tested 20 μM
T3 construct: protease activity associated with the proteasome complex in cultured cells; endogenous in cells; host or cells: Ramos cells
Text: as §1, §2, §3

[4] = target: T4, β 1c (caspase-like) (Homo sapiens, UniProt P28072+Q99436); experiment: Cell-Based Proteasome Activity/Selectivity Assay (Ramos cells), substrate (LLE)2Rh110; conditions: β 1c substrate (LLE)2Rh110, highest concentration tested 20 μM
T4 construct: protease activity associated with the proteasome complex in cultured cells; endogenous in cells; host or cells: Ramos cells
Text: as §1, §2, §3

[5] = tested on: β 2c/2i (trypsin-like); experiment: Cell-Based Proteasome Activity/Selectivity Assay (Ramos cells), substrate (KQL)2Rh110; conditions: β 2c/2i substrate (KQL)2Rh110, highest concentration tested 20 μM
Text: as §1, §2, §3

[6] = tested on: IP10 level in PBMCs stimulated with CpG Type A; experiment: PBMC IP-10 Assay; format: cell-based; conditions: PBMCs stimulated with CpG Type A 2.5 μM, overnight, IP10 AlphaLISA
Procedure: PBMCs were isolated from whole blood as follows: Blood was collected in a sterile environment in heparinized tubes. Blood was diluted with an equal volume PBS/2% FCS and 30 ml of this mixture was added to ACCUSPIN tubes containing 15 ml Histopaque-1077 already centrifuged at 800 g for 30 seconds and warmed up at room temperature. The tubes were then centrifuged at 800 g for 20 minutes at room temperature with no brake. The mononuclear band, just above the polyethylene frit, was removed by Pasteur pipet. These mononuclear cells were washed three times with sterile PBS, counted, and resuspended in RPMI 1640 supplemented with 10% heat inactivated fetal calf serum, 10 mM HEPES, 1 mM sodium pyruvate, penicillin (50 U/ml), streptomycin (50 μg/ml) and glutamine (2 mM) to approximately 1.5×10^6/ml. Approximately 2×10^5 cells/well were plated in 96 well tissue culture plates (BD Falcon 353072), and preincubated 60 mi/37° C. with a titration of compounds, in a final concentration of 1% DMSO. Cells were then stimulated with CpG Type A (Invivogen, Cat # tlrl-2216; ODN 2216) at a final concentration of 2.5 μM. Cells were incubated overnight, and supernatants were removed. PBMC viability of cells remaining in the well was measured with ATPlite luminescence assay (Perkin-Elmer) per the manufacturer's instructions. Luminescence was measured on the Perkin-Elmer Envision, using the luminescence filter. IP10 level was measured with CXCL10/IP10 AlphaLISA kit (Perkin-Elmer) per the manufacturer's instructions, except halving all volumes. Fluorescence was measured on the Envision Multilabel plate reader, using the AlphaScreen standard settings.

[7] = tested on: MRL/lpr lupus-prone mice; conditions: cited from earlier work
[8] = tested on: Th1/17 differentiation, B cell effector functions and production of inflammatory cytokines (IL-6, TNF-α, IL-23); conditions: cited from earlier work
[9] = tested on: mouse CAIA and CIA arthritis models; conditions: cited from earlier work
[10] = tested on: DSS-induced colitis model in mice; conditions: cited from earlier work

| Structure (SMILES) | IC50 [1] [nM] | IC50 [2] [nM] | IC50 [3] [nM] | IC50 [4] [nM] | IC50 [5] [nM] | EC50 [6] [nM] | disease progression [7] | plasma cells numbers and levels of anti-dsDNA IgG [7] | block of Th1/17 differentiation, B cell effector functions and production of inflammatory cytokines [8] | disease score [9] | inflammation and tissue destruction [10] |
| --- | --- | --- | --- | --- | --- | --- | --- | --- | --- | --- | --- |
| COc1ccc(C(=O)NCCn2cc(C(=O)N[C@@H](CC(C)C)B(O)O)nn2)c(OC)c1OC [Example 1, (R)-3-Methyl-1-(1-(2-(2,3,4-trimethoxybenzamido)ethyl)-1H-1,2,3-triazole-4-carboxamido)butylboronic acid] | 2 | 39 | 4 | 320 | > 20000 | 29.5 |  |  |  |  |  |
| COc1ccc(C(=O)NCCn2cc(C(=O)N[C@@H](Cc3ccccc3)B(O)O)nn2)c(OC)c1OC [Example 2, (R)-2-Phenyl-1-(1-(2-(2,3,4-trimethoxybenzamido)ethyl)-1H-1,2,3-triazole-4-carboxamido)ethylboronic acid] | 7 | 16 | 25 | 6630 | 13500 | 33.7 |  |  |  |  |  |
| COc1ccc(C[C@H](NC(=O)[C@H](C)NC(=O)CN2CCOCC2)C(=O)N[C@@H](Cc2ccccc2)C(=O)[C@@]2(C)CO2)cc1 [PR-957] |  |  |  |  |  |  | prevented disease progression | reduced plasma cells numbers and levels of anti-dsDNA IgG | potently block | significantly decrease disease score | reduced inflammation and tissue destruction |
| COc1cc(C(F)(F)F)ccc1C(=O)NCCn1cc(C(=O)N[C@@H](Cc2ccccc2)B(O)O)nn1 [Example 4, (R)-1-(1-(2-(2-Methoxy-4-(trifluoromethyl)benzamido)ethyl)-1H-1,2,3-triazole-4-carboxamido)-2-phenylethylboronic acid] | 2 | 20 | 9 | 7480 | > 20000 | 12.2 |  |  |  |  |  |
| O=C(N[C@@H](Cc1ccccc1)B(O)O)c1cn(CCNC(=O)c2ccc(C(F)(F)F)cc2F)nn1 [Example 3, (R)-1-(1-(2-(2-Fluoro-4-(trifluoromethyl)benzamido)ethyl)-1H-1,2,3-triazole-4-carboxamido)-2-phenylethylboronic acid] | 2 | 6 | 10 | 7340 | > 20000 | 26.8 |  |  |  |  |  |
